Reference: patent US6352958B1, “Cycloimido-substituted benzofused heterocyclic herbicides” (FMC Corporation, priority 1997, dated 2002)

Tests used:
Assay type in all cases: in vivo
[1] = test system: soybean (Glycine max var. Winchester); experiment: Preemergence herbicidal activity, soybean; details: Rate of Application 0.3 Kg/Ha, examined after 12-17 days
Protocol: (§1) The benzofused heterocyclic compounds of this invention were tested for pre- and postemergence herbicidal activity using a variety of crops and weeds. The test plants included soybean (Glycine max var. Winchester), field corn (Zea mays var. Pioneer 3732), wheat (Triticum aestivum var. Lew), morningglory (Ipomea lacunosa or Ipomea hederacea), velvetleaf (Abutilon theophrasti), green foxtail (Setaria viridis), Johnsongrass (Sorghum halepense), blackgrass (Aloepecurus myosuroides), common chickweed (Stellaria media), and common cocklebur (Xanthium strumarium L.).
(§2) For preemergence testing, two disposable fiber flats (8 cm×15 cm×25 cm) for each rate of application of each candidate herbicide were filled to an approximate depth of 6.5 cm with steam-sterilized sandy loam soil. The soil was leveled and impressed with a template to provide five evenly spaced furrows 13 cm long and 0.5 cm deep in each flat. Seeds of soybean, wheat, corn, green foxtail, and johnsongrass were planted in the furrows of the first flat, and seeds of velvetleaf, morningglory, common chickweed, cocklebur, and blackgrass were planted in the furrows of the second flat. The five-row template was employed to firmly press the seeds into place. A topping soil of equal portions of sand and sandy loam soil was placed uniformly on top of each flat to a depth of approximately 0.5 cm. Flats for postemergence testing were prepared in the same manner except that they were planted 9-14 days prior to the preemergence flats and were placed in a greenhouse and watered, thus allowing the seeds to germinate and the foliage to develop.
(§3) In both pre- and postemergence tests, a stock solution of the candidate herbicide was prepared by dissolving 0.27 g of the compound in 20 mL of water/acetone (50/50) containing 0.5% v/v sorbitan monolaurate. For an application rate of 3000 g/ha of herbicide a 10 mL portion of the stock solution was diluted with water/acetone (50/50) to 45 mL.
(§4) The preemergence flats were initially subjected to a light water spray. The four flats were placed two by two along a conveyor belt (i.e., the two preemergence followed by the two postemergence flats). The conveyor belt fed under a spray nozzle mounted about ten inches above the post-emergent foliage. The preemergent flats were elevated on the belt so that the soil surface was at the same level below the spray nozzle as the foliage canopy of the postemergent plants. The spray of herbicidal solution was commenced and once stabilized, the flats were passed under the spray at a speed to receive a coverage equivalent of 100 L/ha. At this coverage the application rates are those shown in the above table for the individual herbicidal solutions. The preemergence flats were watered immediately thereafter, placed in the greenhouse and watered regularly at the soil surface. The postemergence flats were immediately placed in the green-house and not watered until 24 hours after treatment with the test solution. Thereafter they were regularly watered at ground level. After 12-17 days the plants were examined and the phytotoxicity data were recorded.
(§5) Phytotoxicity data were taken as percent control. Percent control was determined by a method similar to the 0 to 100 rating system disclosed in “Research Methods in Weed Science,” 2nd ed., B. Truelove, Ed.; Southern Weed Science Society; Auburn University, Auburn, Ala., 1977.

[2] = test system: wheat (Triticum aestivum var. Lew); experiment: Preemergence herbicidal activity, wheat; details: Rate of Application 0.3 Kg/Ha, examined after 12-17 days
Protocol: as §1, §2, §3, §4, §5

[3] = test system: field corn (Zea mays var. Pioneer 3732); experiment: Preemergence herbicidal activity, corn; details: Rate of Application 0.3 Kg/Ha, examined after 12-17 days
Protocol: as §1, §2, §3, §4, §5

[4] = test system: velvetleaf (Abutilon theophrasti); experiment: Preemergence herbicidal activity, velvetleaf; details: Rate of Application 0.3 Kg/Ha, examined after 12-17 days
Protocol: as §1, §2, §3, §4, §5

[5] = test system: morningglory (Ipomea lacunosa or Ipomea hederacea); experiment: Preemergence herbicidal activity, morningglory; details: Rate of Application 0.3 Kg/Ha, examined after 12-17 days
Protocol: as §1, §2, §3, §4, §5

[6] = test system: common chickweed (Stellaria media); experiment: Preemergence herbicidal activity, chickweed; details: Rate of Application 0.3 Kg/Ha, examined after 12-17 days
Protocol: as §1, §2, §3, §4, §5

[7] = test system: common cocklebur (Xanthium strumarium L.); experiment: Preemergence herbicidal activity, cocklebur; details: Rate of Application 0.3 Kg/Ha, examined after 12-17 days
Protocol: as §1, §2, §3, §4, §5

[8] = test system: green foxtail (Setaria viridis); experiment: Preemergence herbicidal activity, green foxtail; details: Rate of Application 0.3 Kg/Ha, examined after 12-17 days
Protocol: as §1, §2, §3, §4, §5

[9] = test system: Johnsongrass (Sorghum halepense); experiment: Preemergence herbicidal activity, johnsongrass; details: Rate of Application 0.3 Kg/Ha, examined after 12-17 days
Protocol: as §1, §2, §3, §4, §5

[10] = test system: soybean (Glycine max var. Winchester); experiment: Postemergence herbicidal activity, soybean; details: rate of application 0.3 Kg/Ha, rated after 12-17 days
Protocol: as §1, §2, §3, §4, §5

[11] = test system: wheat (Triticum aestivum var. Lew); experiment: Postemergence herbicidal activity, wheat; details: rate of application 0.3 Kg/Ha, rated after 12-17 days
Protocol: as §1, §2, §3, §4, §5

[12] = test system: field corn (Zea mays var. Pioneer 3732); experiment: Postemergence herbicidal activity, corn; details: rate of application 0.3 Kg/Ha, rated after 12-17 days
Protocol: as §1, §2, §3, §4, §5

[13] = test system: velvetleaf (Abutilon theophrasti); experiment: Postemergence herbicidal activity, velvetleaf; details: rate of application 0.3 Kg/Ha, rated after 12-17 days
Protocol: as §1, §2, §3, §4, §5

[14] = test system: morningglory (Ipomea lacunosa or Ipomea hederacea); experiment: Postemergence herbicidal activity, morningglory; details: rate of application 0.3 Kg/Ha, rated after 12-17 days
Protocol: as §1, §2, §3, §4, §5

[15] = test system: common chickweed (Stellaria media); experiment: Postemergence herbicidal activity, chickweed; details: rate of application 0.3 Kg/Ha, rated after 12-17 days
Protocol: as §1, §2, §3, §4, §5

[16] = test system: common cocklebur (Xanthium strumarium L.); experiment: Postemergence herbicidal activity, cocklebur; details: rate of application 0.3 Kg/Ha, rated after 12-17 days
Protocol: as §1, §2, §3, §4, §5

[17] = test system: green foxtail (Setaria viridis); experiment: Postemergence herbicidal activity, green foxtail; details: rate of application 0.3 Kg/Ha, rated after 12-17 days
Protocol: as §1, §2, §3, §4, §5

[18] = test system: Johnsongrass (Sorghum halepense); experiment: Postemergence herbicidal activity, johnsongrass; details: rate of application 0.3 Kg/Ha, rated after 12-17 days
Protocol: as §1, §2, §3, §4, §5

| Structure (SMILES) | PREEMERGENCE HERBICIDAL ACTIVITY (% CONTROL) SOY [1] | PREEMERGENCE HERBICIDAL ACTIVITY (% CONTROL) WHT [2] | PREEMERGENCE HERBICIDAL ACTIVITY (% CONTROL) CRN [3] | PREEMERGENCE HERBICIDAL ACTIVITY (% CONTROL) ABUTH [4] | PREEMERGENCE HERBICIDAL ACTIVITY (% CONTROL) IPOSS [5] | PREEMERGENCE HERBICIDAL ACTIVITY (% CONTROL) STEME [6] | PREEMERGENCE HERBICIDAL ACTIVITY (% CONTROL) XANPE [7] | PREEMERGENCE HERBICIDAL ACTIVITY (% CONTROL) SETVI [8] | PREEMERGENCE HERBICIDAL ACTIVITY (% CONTROL) SORHA [9] | Postemergence herbicidal activity (% control) SOY [10] | Postemergence herbicidal activity (% control) WHT [11] | Postemergence herbicidal activity (% control) CRN [12] | Postemergence herbicidal activity (% control) ABUTH [13] | Postemergence herbicidal activity (% control) IPOSS [14] | Postemergence herbicidal activity (% control) STEME [15] | Postemergence herbicidal activity (% control) XANPE [16] | Postemergence herbicidal activity (% control) SETVI [17] | Postemergence herbicidal activity (% control) SORHA [18] |
| --- | --- | --- | --- | --- | --- | --- | --- | --- | --- | --- | --- | --- | --- | --- | --- | --- | --- | --- |
| CC(O)c1cc2c(Cl)cc(F)c(-n3c(=O)cc(C(F)(F)F)n(C)c3=O)c2o1 (stereo not drawn) [Compound 240] | 100% | 95% | 95% | 100% | 100% | 100% | 100% | 100% | 100% | 95% | 95% | 100% | 100% | 100% | 100% | 100% | 100% | 100% |
| Cn1c(C(F)(F)F)cc(=O)n(-c2ccc(Cl)c3cc(C(Br)Br)oc23)c1=O [Compound 233] | 40% | 30% | 70% | 100% | 95% | 20% | 20% | 60% | 50% | 90% | 30% | 60% | 100% | 100% | 30% | 30% | 30% | 30% |
| Cn1c(C(F)(F)F)cc(=O)n(-c2ccc(Cl)c3cc(C(=O)O)oc23)c1=O [Compound 266] | 50% | 30% | 60% | 40% | 70% | 0% | 0% | 30% | 30% | 60% | 40% | 60% | 50% | 60% | 10% | 10% | 40% | 40% |
| Cn1c(C(F)(F)F)cc(=O)n(-c2c(F)cc(F)c3cc(C(C)(C)C)oc23)c1=O [Compound 228] | 100% | 80% | 95% | 100% | 100% | 100% | 90% | 100% | 100% | 90% | 50% | 80% | 100% | 100% | 80% | 95% | 100% | 90% |
| Cn1c(C(F)(F)F)cc(=O)n(-c2ccc(Cl)c3cc(C=O)oc23)c1=O [Compound 265] | 70% | 40% | 80% | 90% | 100% | 20% | 70% | 80% | 60% | 70% | 40% | 60% | 100% | 100% | 30% | 20% | 40% | 20% |
| Cn1c(C(F)(F)F)cc(=O)n(-c2c(F)cc(Cl)c3cc(C(C)(C)NS(C)(=O)=O)oc23)c1=O [Compound 255] | 100% | 90% | 95% | 100% | 100% | 100% | 100% | 100% | 100% | 100% | 100% | 100% | 100% | 100% | 100% | 100% | 100% | 100% |
